The values that follow come from ChEMBL document CHEMBL4732259, “Imidazo[1,2-c]pyrimidin-5(6H)-one inhibitors of CDK2: Synthesis, kinase inhibition and co-crystal structure” (Eur J Med Chem, 2021).

One may read the IC50 as the concentration needed to halve the response being measured. A word on the GI50: it is the concentration at which growth is held to half of that of the control. The inhibition is the change of the read-out against control, counted positive when it falls. As usually defined, the Kd is the free concentration of one partner at which half of the binding sites on the other are occupied at equilibrium, for simple one-to-one binding.

The test system of assay [1] is MV4-11. As to the kind of experiment: Antiproliferative activity against human MV4-11 cells assessed as cell viability at 10 uM incubated for 72 hrs by resazurin assay. The class given is functional. Conditions: read-out: Activity. On the technique in general: Resazurin is reduced to fluorescent resorufin, in cell work by metabolically active cells.
The target in assay [2] is T1, Cyclin-dependent kinase 2/cyclin E1 (Homo sapiens, UniProt P24941). As to the kind of experiment: Inhibition of CDK2/cyclin E (unknown origin) using peptide substrate in presence of [gamma33P]ATP by image analyser. The class given is protein-complex assay.
Assay [3] relates to MOLM-13. As to the kind of experiment: Antiproliferative activity against human MOLM-13 cells assessed as cell viability at 10 uM incubated for 72 hrs by resazurin assay. Conditions: read-out: Activity. The class given is functional.
Assay [4] deals with K562. In words: Antiproliferative activity against human K562 cells assessed as cell viability at 10 uM incubated for 72 hrs by resazurin assay. Format: functional. Conditions: read-out: Activity.
Assay [5] deals with Cyclin-dependent kinase 1/cyclin B1 (Homo sapiens, UniProt P06493). In words: Inhibition of CDK1/cyclin B (unknown origin) using peptide substrate in presence of [gamma33P]ATP by image analyser. The class given is protein-complex assay.
Cyclin-dependent kinase 1/cyclin B1, sequence (P06493 whole entry): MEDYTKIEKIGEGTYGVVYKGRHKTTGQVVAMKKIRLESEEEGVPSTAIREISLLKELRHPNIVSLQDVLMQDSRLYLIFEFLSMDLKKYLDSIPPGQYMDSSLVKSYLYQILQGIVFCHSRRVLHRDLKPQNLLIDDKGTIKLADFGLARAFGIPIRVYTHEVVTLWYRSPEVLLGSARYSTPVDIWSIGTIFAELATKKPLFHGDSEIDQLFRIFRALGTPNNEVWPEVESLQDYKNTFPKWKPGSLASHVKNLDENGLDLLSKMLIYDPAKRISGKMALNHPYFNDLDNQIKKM
Cyclin-dependent kinase 1/cyclin B1, sequence (P14635 whole entry, further chain): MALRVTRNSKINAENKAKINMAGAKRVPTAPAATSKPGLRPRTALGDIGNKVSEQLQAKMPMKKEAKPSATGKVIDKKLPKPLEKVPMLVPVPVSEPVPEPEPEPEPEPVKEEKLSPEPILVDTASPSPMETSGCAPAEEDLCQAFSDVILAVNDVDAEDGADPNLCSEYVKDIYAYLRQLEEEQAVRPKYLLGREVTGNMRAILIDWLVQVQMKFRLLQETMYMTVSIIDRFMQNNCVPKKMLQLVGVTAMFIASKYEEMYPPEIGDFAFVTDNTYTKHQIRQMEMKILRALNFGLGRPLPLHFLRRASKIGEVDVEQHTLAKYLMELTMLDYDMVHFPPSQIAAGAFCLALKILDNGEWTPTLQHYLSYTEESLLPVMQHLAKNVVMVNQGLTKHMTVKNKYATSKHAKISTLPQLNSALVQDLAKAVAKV
The subject of assay [6] is MV4-11. In words: Induction of cell cycle arrest in human MV4-11 cells assessed as reduction in S phase cells at high dose after 24 to 72 hrs by propidium iodide staining based flow cytometry analysis. The class given is functional. The following applies: time 24-72 hrs. (In general: A flow cytometer gives signals particle by particle.)
In assay [7] the test system is MV4-11. As to the kind of experiment: Antiproliferative activity against human MV4-11 cells assessed as growth inhibition after 72 hrs by resazurin assay. Format: functional.
In assay [8] the test system is MOLM-13. In words: Antiproliferative activity against human MOLM-13 cells assessed as growth inhibition after 72 hrs by resazurin assay. The class given is functional.
Assay [9] addresses Cyclin-dependent kinase 4/cyclin D1 (Homo sapiens) (UniProt P11802+P24385). As to the kind of experiment: Inhibition of CDK4/cyclin D1 (unknown origin) at 20 uM using peptide substrate in presence of [gamma33P]ATP by image analyser relative to control. Format: protein-complex assay.
In assay [10] the target is CDK9/cyclin T1 (Homo sapiens, UniProt P50750). In words: Inhibition of CDK9/cyclin T1 (unknown origin) using peptide substrate in presence of [gamma33P]ATP by image analyser. Format: protein-complex assay.
CDK9/cyclin T1, sequence (O60563 whole entry): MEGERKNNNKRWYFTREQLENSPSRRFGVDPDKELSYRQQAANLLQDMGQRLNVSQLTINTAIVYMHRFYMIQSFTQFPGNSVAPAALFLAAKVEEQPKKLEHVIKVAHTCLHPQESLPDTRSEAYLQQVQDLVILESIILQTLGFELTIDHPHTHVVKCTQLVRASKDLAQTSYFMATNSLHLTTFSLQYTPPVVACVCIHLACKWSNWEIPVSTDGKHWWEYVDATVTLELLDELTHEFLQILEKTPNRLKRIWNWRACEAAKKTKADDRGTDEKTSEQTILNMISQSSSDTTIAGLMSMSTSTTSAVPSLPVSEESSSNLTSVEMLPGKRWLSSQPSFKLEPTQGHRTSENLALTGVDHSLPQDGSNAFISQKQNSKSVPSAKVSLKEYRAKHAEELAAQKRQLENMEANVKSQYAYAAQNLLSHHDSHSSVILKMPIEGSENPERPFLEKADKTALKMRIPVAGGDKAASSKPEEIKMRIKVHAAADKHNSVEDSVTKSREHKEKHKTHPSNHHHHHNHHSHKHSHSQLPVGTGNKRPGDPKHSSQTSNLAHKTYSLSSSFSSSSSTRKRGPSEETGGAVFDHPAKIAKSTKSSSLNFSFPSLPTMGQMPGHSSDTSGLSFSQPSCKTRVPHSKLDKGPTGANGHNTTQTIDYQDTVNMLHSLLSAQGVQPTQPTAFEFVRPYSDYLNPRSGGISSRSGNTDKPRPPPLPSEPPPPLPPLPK
CDK9/cyclin T1, sequence (P50750 whole entry): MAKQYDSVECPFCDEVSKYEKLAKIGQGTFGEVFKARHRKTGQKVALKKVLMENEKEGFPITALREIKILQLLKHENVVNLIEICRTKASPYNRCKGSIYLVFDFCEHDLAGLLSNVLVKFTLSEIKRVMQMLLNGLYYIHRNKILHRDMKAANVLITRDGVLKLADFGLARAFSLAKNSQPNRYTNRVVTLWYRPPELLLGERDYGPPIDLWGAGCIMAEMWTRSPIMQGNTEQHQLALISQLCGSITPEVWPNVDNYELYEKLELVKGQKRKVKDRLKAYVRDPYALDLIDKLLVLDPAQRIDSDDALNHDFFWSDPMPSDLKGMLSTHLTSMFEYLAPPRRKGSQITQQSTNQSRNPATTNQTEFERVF
In assay [11] the target is T2, Cyclin-dependent kinase 2 (Homo sapiens, UniProt P24941).
Description: Binding affinity to CDK2 (unknown origin) assessed as gibbs free energy change by isothermal titration calorimetry
The target of assay [12] is T2, Cyclin-dependent kinase 2. In words: Binding affinity to CDK2 (unknown origin) assessed as change in entropy by isothermal titration calorimetry.
Assay [13] is described as follows: Inhibition of CDK3/cyclin A2 (unknown origin) using peptide substrate in presence of [gamma33P]ATP by image analyser. More on the design: species or system Homo sapiens.
In assay [14] the target is T2, Cyclin-dependent kinase 2. As to the kind of experiment: Binding affinity to CDK2 (unknown origin) by isothermal titration calorimetry. (Isothermal titration calorimetry measures the heat released or taken up as one component is titrated into another.)
In assay [15] the test system is MV4-11. In words: Induction of cell cycle arrest in human MV4-11 cells assessed as accumulation at sub-G1 phase at high dose after 72 hrs by propidium iodide staining based flow cytometry analysis. Format: functional.
Assay [16] has as its target CDK2/Cyclin A2 (Homo sapiens, UniProt P24941). As to the kind of experiment: Inhibition of CDK2/cyclin A2 (unknown origin) using peptide substrate in presence of [gamma33P]ATP by image analyser. The class given is protein-complex assay.
For assay [17], the system named is MV4-11. In words: Induction of cell cycle arrest in human MV4-11 cells assessed as accumulation at G1 phase after 24 to 72 hrs by propidium iodide staining based flow cytometry analysis. The class given is functional. The following applies: dose 6-100 µM, time 24-72 hrs.
For assay [18], the target named is Cyclin-dependent kinase 4/cyclin D1 (Homo sapiens, UniProt P11802). As to the kind of experiment: Inhibition of CDK4/cyclin D1 (unknown origin) using peptide substrate in presence of [gamma33P]ATP by image analyser. Format: protein-complex assay.
Cyclin-dependent kinase 4/cyclin D1, sequence (P11802 whole entry): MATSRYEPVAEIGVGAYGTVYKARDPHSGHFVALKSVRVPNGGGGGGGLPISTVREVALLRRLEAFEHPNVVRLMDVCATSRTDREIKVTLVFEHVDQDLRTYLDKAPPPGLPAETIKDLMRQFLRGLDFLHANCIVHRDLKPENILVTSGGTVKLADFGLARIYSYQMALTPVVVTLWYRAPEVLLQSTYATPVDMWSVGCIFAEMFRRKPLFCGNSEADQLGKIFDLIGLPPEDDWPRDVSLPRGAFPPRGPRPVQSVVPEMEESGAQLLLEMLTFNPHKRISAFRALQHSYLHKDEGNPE
Cyclin-dependent kinase 4/cyclin D1, sequence (P24385 whole entry, further chain): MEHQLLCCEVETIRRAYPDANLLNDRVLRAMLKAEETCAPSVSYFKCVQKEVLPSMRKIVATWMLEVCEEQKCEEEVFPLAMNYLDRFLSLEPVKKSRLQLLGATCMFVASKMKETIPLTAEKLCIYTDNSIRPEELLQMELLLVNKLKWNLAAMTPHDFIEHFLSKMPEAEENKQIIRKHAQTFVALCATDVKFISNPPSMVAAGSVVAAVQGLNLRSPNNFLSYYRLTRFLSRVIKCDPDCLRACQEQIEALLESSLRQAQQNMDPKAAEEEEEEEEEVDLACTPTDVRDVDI
Assay [19] addresses T2, Cyclin-dependent kinase 2. As to the kind of experiment: Binding affinity to CDK2 (unknown origin) assessed as change in enthalpy by isothermal titration calorimetry.
Assay [20] addresses T1, Cyclin-dependent kinase 2/cyclin E1. In words: Inhibition of CDK2/cyclin E (unknown origin) expressed in baculovirus infected Sf9 cells using histone H1 as substrate in presence of [gamma33P]ATP by image analyser.

Active and inactive are the calls of the source. No cut-off for these calls is given here.

As for `O=c1[nH]cc(C2CCCCC2)c2nc(I)c(I)n12`, the figures for the viability at 10 µM in assay [1], in assay [3] and in [4] were 57%, 53.9% and 99.5%, respectively. Moreover, in [2], the IC50 stood at 4.6 µM.
On the same counts, the results for `O=c1[nH]cc(C2CCCC2)c2nccn12` are 90.2%, 90.5%, 105% and 4 µM.
In the same order, the values of `O=c1n(CCCO)cc(C2CCCCC2)c2nccn12` are 91.7%, 94.1%, 104% and 3 µM.
With `O=C(O)Cn1cc(C2CCCCC2)c2nccn2c1=O`, the viability at 10 µM in assay [1] stood at 94.7%; in assay [3], 90.3%; in assay [4], 108%. Besides, the IC50 in assay [2] was more than 50 µM.
As to `O=c1[nH]cc(-c2ccccc2)c2ncc(I)n12`, the figures for the viability at 10 µM in assay [1], in assay [3] and in assay [4] were 72.6%, 77.4% and 109%, respectively. The half-maximal inhibitory concentration (IC50) in assay [2] is more than 25 µM.
On the same counts, the results for `O=c1[nH]cc(C2=CCCC2)c2nccn12` are 88.2%, 93.4%, 106% and 4.9 µM.
On the same counts, the results for `O=c1[nH]cc(/C=C/c2ccccc2)c2nccn12` are 42.3%, 55.6%, 107% and 17.8 µM.
`O=c1n(CCO)cc(C2CCCCC2)c2nccn12`: the viability at 10 µM worked out at 88.4% in assay [1], 91.9% in assay [3] and 103% in assay [4]. For the same molecule, the 50% inhibitory concentration (IC50) in assay [2] amounted to 1.5 µM.
For the molecule `O=c1[nH]cc(C2CCCCC2)c2nccn12`, the half-maximal inhibitory concentration (IC50) in assay [5] was 4.3 µM; in assay [10], 10 µM; in assay [13], 2.72 µM; in [2], 0.66 µM; in assay [16], 0.68 µM; in [18] it was 14.3 µM. The outcome in [6] and in assay [15] was Active. The concentration for 50% growth inhibition (GI50) in assay [7] and in assay [8] was 50 µM each time. The inhibition in [9] is 46%. The molecule also showed a deltaG in [11] of -7.48 kcal/mol. The -TdeltaS in [12] amounted to 3.92 kcal/mol. Further, the figures for the viability at 10 µM in [1], in assay [3] and in assay [4] were 82.2%, 84.8% and 103%, respectively. In addition, the Kd in assay [14] stood at 4.1 µM. Moreover, the Activity result in assay [17] was “Dose-dependent effect”. For the same molecule, the deltaH in [19] is -11.4 kcal/mol.
Take `NS(=O)(=O)c1ccc(Nc2nc(OCC3CCCCC3)c3nc[nH]c3n2)cc1`: the viability at 10 µM in assay [1] is 32.1%; in assay [3] it was 66%; in assay [4], 103%.
Turning to `CC(=O)OCCCn1cc(C2CCCCC2)c2nccn2c1=O`, the viability at 10 µM was 88.5% in [1], 93.8% in assay [3] and 101% in assay [4]. Moreover, the IC50 in [2] came to 7.7 µM.
On to `COc1ccc(-c2cn3c(=O)[nH]cc(-c4ccc(OC)cc4)c3n2)cc1`, for which the viability at 10 µM in [1] was 52%; in assay [3], 15.3%; in [4], 36.2%. Further, the IC50 in [2] is more than 25 µM.
With `Cn1cc(C2CCCCC2)c2nccn2c1=O`, the figures for the viability at 10 µM in assay [1], in assay [3] and in assay [4] were 89.3%, 88.3% and 105%, respectively. Further, the concentration for half-maximal inhibition (IC50) in assay [2] turned out to be 4.7 µM.
On the same counts, the results for `O=c1[nH]cc(-c2ccccc2)c2nc(I)cn12` are 62.6%, 63.3%, 110% and more than 25 µM.
On the same counts, the results for `O=c1[nH]cc(C2CCCCC2)c2nc(I)cn12` are 40.1%, 33.8%, 101% and 6.5 µM.
In the same order, the values of `O=C1c2ccccc2C(=O)N1Cn1cc(C2CCCCC2)c2nccn2c1=O` are 87.4%, 91.3%, 107% and more than 50 µM.
For `O=c1[nH]cc(-c2ccccc2)c2ncc(Br)n12`, the viability at 10 µM came to 78.6% in [1], 82.7% in assay [3] and 109% in assay [4]. Moreover, in assay [2], the IC50 was more than 50 µM.
Turning to `O=c1[nH]cc(C2CCCCC2)c2ncc(I)n12`, the viability at 10 µM turned out to be 78.5% in assay [1], 70.7% in [3] and 100% in [4]. In addition, the IC50 in [2] was determined as 14.2 µM.
On the same counts, the results for `O=c1[nH]cc(C2=CCCCC2)c2nccn12` are 80.6%, 88.7%, 101% and 1.2 µM.
In the case of `O=c1[nH]cc(-c2ccccc2)c2nc(I)c(I)n12`, the viability at 10 µM in assay [1] worked out at 63.1%; in assay [3], 56.7%; in assay [4], 113%. Also, the concentration for half-maximal inhibition (IC50) in assay [2] was more than 12.5 µM.
In the same order, the values of `CCOC(=O)Cn1cc(C2CCCCC2)c2nccn2c1=O` are 93.3%, 90.3%, 110% and more than 50 µM.
In the same order, the values of `O=c1[nH]cc(-c2cccc(O)c2)c2nccn12` are 82%, 85.6%, 104% and 4.8 µM.
In the same order, the values of `O=c1[nH]cc(-c2ccc(O)cc2Cl)c2nccn12` are 85%, 86.2%, 105% and 1.5 µM.
As for `O=c1[nH]cc(-c2ccccc2)c2nc(Br)cn12`, the viability at 10 µM was found to be 77.2% in assay [1], 83.9% in assay [3] and 105% in assay [4]. Also, in assay [2], the half-maximal inhibitory concentration (IC50) is 24.4 µM.
Regarding `O=c1[nH]cc(-c2ccccc2)c2nccn12`, the concentration for half-maximal inhibition (IC50) in assay [20] came to 6.6 µM. Moreover, the viability at 10 µM was 89.2% in assay [1], 87.4% in [3] and 108% in [4].
With `O=c1[nH]cc(-c2ccsc2)c2nccn12`, the viability at 10 µM amounted to 84.9% in assay [1], 87.8% in [3] and 105% in assay [4]. Besides, the IC50 in assay [2] turned out to be 8.9 µM.
On to `O=c1[nH]cc(-c2ccccc2)c2nc(-c3ccccc3)cn12`, for which the viability at 10 µM in assay [1] amounted to 84.1%; in assay [3], 83.5%; in [4], 105%. In [2], the IC50 is more than 50 µM.
On to `COc1ccc(-c2cn3c(=O)[nH]cc(F)c3n2)cc1`, for which the viability at 10 µM is 42.9% in assay [1], 51.8% in [3] and 109% in assay [4]. The IC50 in assay [2] is more than 25 µM.
Turning to `NS(=O)(=O)c1ccc(Nc2nc(-c3cccc(-c4ccccc4)c3)c3nc[nH]c3n2)cc1`, the 50% inhibitory concentration (IC50) in [5] was 4.3 µM; in [10], 9.4 µM; in assay [13], 2.87 µM; in assay [2], 0.031 µM; in assay [16] it was 0.022 µM; in assay [18], more than 20 µM. For the same molecule, the viability at 10 µM in assay [1] amounted to 62.8%; in assay [3] it was 98.3%; in assay [4], 94.5%.
As for `O=c1[nH]cc(-c2ccc(-c3c[nH]c(=O)n4ccnc34)cc2)c2nccn12`, the viability at 10 µM in [1] was found to be 91.4%; in assay [3], 87.5%; in [4], 111%. Also, in assay [2], the IC50 was more than 12.5 µM.
